Data reported in patent US11400389B2, “Marsdenia cundurango creeper extracts, cosmetic compositions comprising them and cosmetic uses of same” (ISP Investments LLC, priority 2017, dated 2022).
No end group written: not given here.

Assays:
LAMP2 = test: Expression of the LAMP2 autophagy marker in skin biopsies with or without multi-toxin (cigarette smoke) stress; assay type: cell-based; conditions: human skin biopsies, extract 1% in a cream, EGCG 200 μg/ml
Description: The objective of this study was to observe the effect of treatment by condurango on skin biopsies previously subjected to multi-toxin stress, brought about by incubating the biopsies with cigarette smoke.
The selected marker is the lysosomal membrane protein LAMP2A, which is involved in the process of autophagy, one of the main pathways of degradation of cellular waste.
Human skin biopsies in culture were placed in a sealed chamber saturated with cigarette smoke for 30 minutes. This stress was referred to as multi-toxic stress due to the cigarette smoke being composed of toxic molecules from different classes. After the stress, the biopsies were placed in culture and treated by the condurango extract obtained from example 4 and formulated to 1% (mass/mass) in a cream, as in example 5. […]
At the end of this incubation, the protein LAMP2 was detected by immunomarking on skin biopsy sections.
This technique was performed on paraffin skin sections incubated in the presence of the anti-LAMP2 antibody (rabbit polyclonal antibody, Abcam) After 1 hour of incubation followed by rinsings, the sections were incubated in the presence of secondary anti-rabbit antibody coupled with a fluorophore (Alexa Fluor® 488, Invitrogen). The sections were then examined under epi-fluorescence microscope (Zeiss Axiovert 200M microscope). The expression of LAMP2 was then observed and quantified at epidermis level.

interleukin-6 (IL-6) = test: Salting-out of interleukin-6 by skin biopsies subjected to stress by substance P (ELISA); assay type: cell-based, human; conditions: substance P 10^−6 M in culture medium, 48 hours, extract 1% in a cream where applied
Description: The objective of this experiment was to study the effect of the condurango extract on skin biopsies subjected to a stress by the substance P. The substance P was the central mediator of neurogenic inflammation (inflammation mediated via the peripheral nervous system). The neuropeptide is involved in various processes, including acute or chronic inflammation, and the perception of pain or nociception. The effect of the stress, whether or not brought about in the presence of the condurango extract, was studied by measuring the salting-out of interleukin-6 (IL-6), a cytokine synthesised by skin cells and considered to be a nociceptive inflammation mediator (O'Donovan A et al. Clinical anxiety, cortisol and interleukin-6: evidence for specificity in emotion-biology relationships. Brain Behav Immun. 2010 October; 24(7):1074-7).
Skin biopsies in culture were treated with the condurango extract obtained from example 4, formulated to 1% in a cream, as in example 5, with or without addition of substance P at 10^−6 M in the culture medium.
After 48 hours of incubation, the culture medium of the biopsies was collected and the level of IL-6 was measured by ELISA.

Compound | increase of LAMP2 after multi-toxic stress (LAMP2; cigarette smoke 30 minutes then treatment) | rise in the marking intensity of LAMP2, in the absence of stress (LAMP2; no stress, 48 hours) | level of IL-6 compared to the non-stressed control (interleukin-6 (IL-6))
O=C(O[C@@H]1Cc2c(O)cc(O)cc2O[C@@H]1c1cc(O)c(O)c(O)c1)c1cc(O)c(O)c(O)c1 [EGCG, epigallocatechin gallate] | +26% | +27% | 
substance P: neuropeptide, central mediator of neurogenic inflammation, used as stressor (RPKPQQFFGLM; ends and bridges not checked; UniProt P20366 58-68, looked up) |  |  | +68%
